US20200024223A1, “CRYSTALLINE SALTS OF (4S,4AS,5AR,12AS)-4-DIMETHYLAMINO-3,10,12,12A-TETRAHYDROXY-7-[(METHOXY(METHYL)AMINO)-METHYL]-1,11-DIOXO-1,4,4A,5,5A,6,11,12A-OCTAHYDRO-NAPHTHACENE-2-CARBOXYLIC ACID AMIDE AND METHODS OF USING THE SAME” (priority 2011, published 2020)
Several values for one entry are separate records, joined by “and”; a condition that tells them apart may be missing. Equal values may be shown once. Where a name gives a salt, the structure may show the parent alone.

Columns and labels:
[1] = Storage stability by HPLC-UV (chemical purity, β-isomer content, total impurity content); assay type: physicochemical; conditions: for Chemical Purity at 7 days, 40° C. and 75% RH / β-isomer content at 7 days, 40° C. and 75% RH: storage 7 days at 40° C. and 75% RH
Method: The lower the β-isomer content, the higher the chemical purity of the salt. The β-isomer content is measured after synthesis of the salt and compared with the measured β-isomer content after storage for a designated period of time.
Another measure of chemical purity is defined by the content of other related impurities, by-products or degradation products of the salt, which represents the […] of the compound. The lower the content of total impurities as measured by HPLC, generally, by HPLC-UV, the higher the chemical purity of the salt. The total impurity content is measured after synthesis of the salt and compared with the measured total impurity content after storage for a designated period of time.
In order to determine the stability of Crystalline Mono Hydrochloride Salt, the β-isomer content of the salt was determined by HPLC-UV analysis and compared to the β-isomer content calculated after the salt was stored in an amber glass vial for approximately 75 days at ambient conditions.
The β-isomer content of Comparative Example 2 was also determined by HPLC-UV analysis at 0 days and compared to the β-isomer content calculated after the compound was stored in a clear glass vial for approximately 75 days at ambient conditions.
HPLC-UV and XRPD analysis were conducted on samples of Crystalline Mono Hydrochloride Salt, Crystalline Mesylate Salt and Crystalline Sulfate Salt at 0 days and after storage for 7 days at 40° C. and 75% RH. FIGS. 1, 4 and 7 show the XRPD analysis of the Crystalline Mono Hydrochloride Salt, Crystalline Mesylate Salt and Crystalline Sulfate Salt at 0 days and after storage at 40° C. and 75% RH with the graphs overlaid for comparison.
The results of HPLC-UV analysis for the same samples of Crystalline Mesylate Salt and Crystalline Sulfate Salt are shown in Table 4.

[2] = XRPD analysis of crystal form after storage; assay type: physicochemical; conditions: 7 days at 40° C. and 75% RH vs 0 days
Method: XRPD analysis as disclosed herein was collected on a Bruker AXS C2 GADDS diffractometer using Cu Kα radiation (40 kV, 40 mA), automated XYZ stage, laser video microscope for auto-sample positioning and a HiStar 2-dimensional area detector. X-ray optics consisted of a single Gbbel multilayer mirror coupled with a pinhole collimator of 0.3 mm. The software used for data collection was GADDS for WNT 4.1.16 and the data was analyzed and presented using Diffrac Plus EVA v 9.0.0.2 or v 13.0.0.2. Samples were analyzed under ambient conditions as flat plate specimens using powder as received. Approximately 1-2 mg of the sample was lightly pressed on a glass slide to obtain a flat surface. Samples analyzed under non-ambient conditions were mounted on a silicon wafer with a heat conducting compound. The sample was then heated to the appropriate temperature at approximately 20° C.min^−1 and subsequently held isothermally for approximately 1 minute before data collection was initiated.
HPLC-UV and XRPD analysis were conducted on samples of Crystalline Mono Hydrochloride Salt, Crystalline Mesylate Salt and Crystalline Sulfate Salt at 0 days and after storage for 7 days at 40° C. and 75% RH. FIGS. 1, 4 and 7 show the XRPD analysis of the Crystalline Mono Hydrochloride Salt, Crystalline Mesylate Salt and Crystalline Sulfate Salt at 0 days and after storage at 40° C. and 75% RH with the graphs overlaid for comparison. […] The changes shown in the figure are in intensity and resolution rather than in peak position, which, if present, would indicate change in crystal form. Accordingly, Crystalline Mono Hydrochloride Salt and Crystalline Mesylate Salt are physically stable, as shown by FIGS. 1 and 4.

[3] = Thermo-gravimetric analysis (TGA); assay type: physicochemical
Method: TGA is used to determine changes in weight in relation to change in temperature, which may reveal degradation of the compound and the presence of solvates or hydrates. TGA analysis as disclosed herein was collected on a TA Instruments Q500 TGA equipped with a 16 position auto-sampler. The instrument was temperature calibrated using certified Alumel and Nickel. […] A nitrogen purge at 60 ml.min^−1 was maintained over the sample. The instrument control and data analysis software used was Advantage for Q Series v2.8.0.392 and Thermal Advantage v4.8.3 and the data was analyzed using Universal Analysis v4.4A. […] The observed apparent weight loss is due to instability of the machine. Table 5 below compares the DSC and TGA analysis of the crystalline salts of the present invention with the crystalline free base and Comparative Example 1.

[4] = Differential scanning calorimetry (DSC); assay type: physicochemical
Method: DSC analysis as disclosed herein was collected on a TA Instruments Q2000 equipped with a 50 position auto-sampler. The instrument was calibrated for energy and temperature using certified indium. The calibration for thermal capacity was carried out using sapphire. […] A nitrogen purge at 50 ml.min^−1 was maintained over the sample. The instrument control software used was Advantage for Q Series v2.8.0.392 and Thermal Advantage v4.8.3 and the data was analyzed using Universal Analysis v4.4A. […] The observed apparent weight loss is due to instability of the machine. Table 5 below compares the DSC and TGA analysis of the crystalline salts of the present invention with the crystalline free base and Comparative Example 1.

[5] = Advantages and disadvantages of solid forms (hygroscopicity, milling/pressing, storage); assay type: physicochemical
Text: One measure of the stability of the physical form of the salt is hygroscopicity, which is the propensity of a substance to absorb or adsorb water molecules from the surrounding environment. Whenever moisture can promote degradation, the salt is stable if it is non-hygroscopic or mildly hygroscopic above 70% relative humidity (RH). In preferred embodiments, the salt is non-hygroscopic or mildly hygroscopic above 80% RH, and in more preferred embodiments, the salt is non-hygroscopic or mildly hygroscopic to 90% RH. “Non-hygroscopic or mildly hygroscopic” as used herein refers to a compound at about 40° C. and at an RH of about 75%, existing over about 80% w/w in solid crystalline form, preferably over about 90% w/w in solid crystalline form, that absorbs less than 10% w/w water, and preferably, less than 5% w/w water in 8 hours or less. Hygroscopicity (hygroscopic degree) is calculated based on increase in weight in a compound at comparative points of measurement. Another measure of physical stability is the crystal form of the salt, which may be measured by XPRD. The stability of Crystalline Mono Hydrochloride Salt was compared to the amorphous mono hydrochloride salt of Comparative Example 2.

S. pneumoniae = assay: In vitro MIC testing, antibacterial spectrum of activity; assay type: cell-based, Streptococcus pneumoniae; conditions: S. pneumoniae [PSSP] (32 isolates)
S. pyogenes = assay: as above; assay type: cell-based; conditions: S. pyogenes (32 isolates)
S. agalactiae = assay: as above; assay type: cell-based; conditions: S. agalactiae (31 isolates)
[6] = tested on: Streptococcus spp. [Group C]; assay: as above; assay type: cell-based; conditions: Streptococcus spp. [Group C] (30 isolates)
[7] = HPLC-UV, 0 days (after synthesis)
[8] = from about 30° C. to about 200° C.
[9] = from about 200° C. to about 250° C.
[10] = HPLC-UV, stored in glass vial approximately 75 days at ambient conditions

With `CON(C)Cc1ccc(O)c2c1C[C@H]1C[C@H]3[C@H](N(C)C)C(O)=C(C(N)=O)C(=O)[C@@]3(O)C(O)=C1C2=O` [Crystalline Mesylate Salt, (4S,4aS,5aR,12aS)-4-dimethylamino-3,10,12,12a-tetrahydroxy-7-[(methoxy(methyl)amino)-methyl]-1,11-dioxo-1,4,4a,5,5a,6,11,12a-octahydro-naphthacene-2-carboxylic acid amide] the “Chemical Purity at 0 days” value [1, 7] was 92%, the “β-isomer content at 0 days” value [1, 7] was 3% and the “Chemical Purity at 7 days, 40° C. and 75% RH” value ([1]; HPLC-UV) was 98%. The “β-isomer content at 7 days, 40° C. and 75% RH” value ([1]; HPLC-UV) was 2%, the “crystal form by XRPD after storage” value [2] was “no change in crystal form” and the TGA weight loss [3, 8] was 3% weight loss from about 30 °C to. The TGA weight loss [3, 9] was 7% weight loss from about 200 °C.
With `CON(C)Cc1ccc(O)c2c1C[C@H]1C[C@H]3[C@H](N(C)C)C(O)=C(C(N)=O)C(=O)[C@@]3(O)C(O)=C1C2=O` [Crystalline Free Base, (4S,4aS,5aR,12aS)-4-dimethylamino-3,10,12,12a-tetrahydroxy-7-[(methoxy(methyl)amino)-methyl]-1,11-dioxo-1,4,4a,5,5a,6,11,12a-octahydro-naphthacene-2-carboxylic acid amide] the TGA weight loss ([3]; from about 30° C. to decomposition at less than 220° C.) was 15% weight loss from about 30 °C and the DSC endothermic peak [4] was 175 °C (ΔH 72 J · g^−1).
For `CON(C)Cc1ccc(O)c2c1C[C@H]1C[C@H]3[C@H](N(C)C)C(O)=C(C(N)=O)C(=O)[C@@]3(O)C(O)=C1C2=O` [Crystalline Mono Hydrochloride Salt, (4S,4aS,5aR,12aS)-4-dimethylamino-3,10,12,12a-tetrahydroxy-7-[(methoxy(methyl)amino)-methyl]-1,11-dioxo-1,4,4a,5,5a,6,11,12a-octahydro-naphthacene-2-carboxylic acid amide], the “β-isomer content upon storage under ambient conditions” value ([5]; ambient conditions) was “No increase in β-isomer content”, the “form or β-isomer content upon milling or pressing” value ([5]; milling or pressing) was “No change in form or β-isomer” and the “crystallinity upon pressing and milling” value ([5]; pressing and milling) was “Some loss of crystallinity upon”. For the same compound, the Hygroscopicity ([5]; relative humidity (RH)) was “Non-hygroscopic to 90% RH”, the “total impurity content at 0 days” value ([1]; HPLC-UV, 0 days) was 4 % peak area and the “Chemical Purity at 0 days” value [1, 7] was 93.8% and 95.8%. For the same compound, the “β-isomer content at 0 days” value [1, 7] was 3.8%, the “Chemical Purity at 75 days” value [1, 10] was 94.8% and the “β-isomer content at 75 days” value [1, 10] was 3.8%. For the same compound, the “total impurity content after storage” value ([1]; about 6 months at about 40° C. and about 75% RH) was 6 % peak area, the “crystal form by XRPD after storage” value [2] was “no change in crystal form” and the TGA weight loss [3, 8] was 3% weight loss from about 30 °C to. The TGA weight loss [3, 9] was 14% weight loss from about 200 °C.
With `CON(C)Cc1ccc(O)c2c1C[C@H]1C[C@H]3[C@H](N(C)C)C(O)=C(C(N)=O)C(=O)[C@@]3(O)C(O)=C1C2=O` [Comparative Example 1, (4S,4aS,5aR,12aS)-4-dimethylamino-3,10,12,12a-tetrahydroxy-7-[(methoxy(methyl)amino)-methyl]-1,11-dioxo-1,4,4a,5,5a,6,11,12a-octahydro-naphthacene-2-carboxylic acid amide] the “β-isomer content at 0 days” value ([1]; 0 days) was 3.6 % peak area, the “β-isomer content after storage” value ([1]; 48 hours at about 40° C. and about 75% RH) was 31.7 % peak area and the “β-isomer content after storage” value ([1]; 36 days at about 25° C. and about 60% RH) was 8.7 % peak area. For the same compound, the “total impurity content at 0 days” value ([1]; HPLC-UV, 0 days) was 4.2 % peak area, the “total impurity content after storage” value ([1]; about 2 days at about 40° C. and about 75% RH) was 34.6 % peak area and the TGA weight loss ([3]; from about 30° C. to about 106° C.) was 7% weight loss from about 30 °C to. For the same compound, the TGA weight loss ([3]; from about 106° C. to about 200° C.) was 8% weight loss from about 106 °C, the TGA weight loss ([3]; from about 200° C. to about 300° C.) was 23% weight loss from about 200 °C and the “Differential Scanning Calorimetry” value ([4]; after synthesis) was “Broad endothermic”.
With Penicillin the MIC50 (S. pneumoniae) was at most 0.015 µg/mL, the “MIC Range” value (S. pneumoniae) was at most 0.015 to 0.12 µg/mL and the MIC50 (S. pyogenes) was at most 0.015 µg/mL. The MIC90 (S. pyogenes) was at most 0.015 µg/mL, the “MIC Range” value (S. pyogenes) was at most 0.015 to 0.25 µg/mL and the “MIC Range” value (S. agalactiae) was at most 0.015 to 2 µg/mL. For the same compound, the MIC50 [6] was at most 0.015 µg/mL, the MIC90 [6] was at most 0.015 µg/mL and the “MIC Range” value [6] was at most 0.015 to 0.03 µg/mL.
In the case of `CON(C)Cc1ccc(O)c2c1C[C@H]1C[C@H]3[C@H](N(C)C)C(O)=C(C(N)=O)C(=O)[C@@]3(O)C(O)=C1C2=O` [Crystalline Sulfate Salt, (4S,4aS,5aR,12aS)-4-dimethylamino-3,10,12,12a-tetrahydroxy-7-[(methoxy(methyl)amino)-methyl]-1,11-dioxo-1,4,4a,5,5a,6,11,12a-octahydro-naphthacene-2-carboxylic acid amide], the “Chemical Purity at 0 days” value [1, 7] is reported as 88%, the “β-isomer content at 0 days” value [1, 7] is reported as 9% and the “Chemical Purity at 7 days, 40° C. and 75% RH” value ([1]; HPLC-UV) is reported as 91%. The “β-isomer content at 7 days, 40° C. and 75% RH” value ([1]; HPLC-UV) was 9%, the “crystal form by XRPD after storage” value [2] was “increased crystalline content” and the TGA weight loss [3, 8] was 3% weight loss from about 30 °C to. The TGA weight loss [3, 9] was 14% weight loss from about 200 °C.
